Measured values published in ChEMBL document CHEMBL5030507, “Structure-Based Design of a Selective Class I Histone Deacetylase (HDAC) Near-Infrared (NIR) Probe for Epigenetic Regulation Detection in Triple-Negative Breast Cancer (TNBC)” (J Med Chem, 2021).

How the values were obtained:
Histone deacetylase 11 = target: T1, Histone deacetylase 11 (Homo sapiens, UniProt Q96DB2); assay: Inhibition of recombinant human full length HDAC11 expressed in baculovirus infected Sf9 cells measured after 60 mins by FRET assay
T1 sequence (Q96DB2 whole entry): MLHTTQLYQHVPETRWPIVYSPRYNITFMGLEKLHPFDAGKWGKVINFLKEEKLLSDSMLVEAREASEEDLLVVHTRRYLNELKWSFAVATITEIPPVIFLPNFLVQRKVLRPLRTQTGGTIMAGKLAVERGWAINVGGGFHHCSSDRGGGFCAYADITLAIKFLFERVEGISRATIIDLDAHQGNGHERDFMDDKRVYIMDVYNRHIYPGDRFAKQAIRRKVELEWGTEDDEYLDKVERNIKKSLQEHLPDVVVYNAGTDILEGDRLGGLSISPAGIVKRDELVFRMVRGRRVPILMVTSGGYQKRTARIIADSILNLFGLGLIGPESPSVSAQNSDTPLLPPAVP

Histone deacetylase 4 = Histone deacetylase 4 (Homo sapiens, UniProt P56524); assay: Inhibition of recombinant human N-terminal GST-tagged/C-terminal His-tagged HDAC4 (627 to 1084 residues) expressed in baculovirus infected Sf9 insect cells using fluorogenic substrate measured after 60 mins by FRET assay
Histone deacetylase 5 = Histone deacetylase 5 (Homo sapiens, UniProt Q9UQL6); assay: Inhibition of recombinant human full length N-terminal GST-tagged HDAC5 expressed in baculovirus infected Sf9 insect cells using fluorogenic substrate measured after 60 mins by FRET assay
[1] = target: T2, Protein deacetylase HDAC6 (Homo sapiens, UniProt Q9UBN7); assay: Inhibition of recombinant human full length N-terminal GST-tagged HDAC6 expressed in Sf9 cells using fluorogenic substrate measured after 60 mins by FRET assay
T2 sequence (Q9UBN7 whole entry): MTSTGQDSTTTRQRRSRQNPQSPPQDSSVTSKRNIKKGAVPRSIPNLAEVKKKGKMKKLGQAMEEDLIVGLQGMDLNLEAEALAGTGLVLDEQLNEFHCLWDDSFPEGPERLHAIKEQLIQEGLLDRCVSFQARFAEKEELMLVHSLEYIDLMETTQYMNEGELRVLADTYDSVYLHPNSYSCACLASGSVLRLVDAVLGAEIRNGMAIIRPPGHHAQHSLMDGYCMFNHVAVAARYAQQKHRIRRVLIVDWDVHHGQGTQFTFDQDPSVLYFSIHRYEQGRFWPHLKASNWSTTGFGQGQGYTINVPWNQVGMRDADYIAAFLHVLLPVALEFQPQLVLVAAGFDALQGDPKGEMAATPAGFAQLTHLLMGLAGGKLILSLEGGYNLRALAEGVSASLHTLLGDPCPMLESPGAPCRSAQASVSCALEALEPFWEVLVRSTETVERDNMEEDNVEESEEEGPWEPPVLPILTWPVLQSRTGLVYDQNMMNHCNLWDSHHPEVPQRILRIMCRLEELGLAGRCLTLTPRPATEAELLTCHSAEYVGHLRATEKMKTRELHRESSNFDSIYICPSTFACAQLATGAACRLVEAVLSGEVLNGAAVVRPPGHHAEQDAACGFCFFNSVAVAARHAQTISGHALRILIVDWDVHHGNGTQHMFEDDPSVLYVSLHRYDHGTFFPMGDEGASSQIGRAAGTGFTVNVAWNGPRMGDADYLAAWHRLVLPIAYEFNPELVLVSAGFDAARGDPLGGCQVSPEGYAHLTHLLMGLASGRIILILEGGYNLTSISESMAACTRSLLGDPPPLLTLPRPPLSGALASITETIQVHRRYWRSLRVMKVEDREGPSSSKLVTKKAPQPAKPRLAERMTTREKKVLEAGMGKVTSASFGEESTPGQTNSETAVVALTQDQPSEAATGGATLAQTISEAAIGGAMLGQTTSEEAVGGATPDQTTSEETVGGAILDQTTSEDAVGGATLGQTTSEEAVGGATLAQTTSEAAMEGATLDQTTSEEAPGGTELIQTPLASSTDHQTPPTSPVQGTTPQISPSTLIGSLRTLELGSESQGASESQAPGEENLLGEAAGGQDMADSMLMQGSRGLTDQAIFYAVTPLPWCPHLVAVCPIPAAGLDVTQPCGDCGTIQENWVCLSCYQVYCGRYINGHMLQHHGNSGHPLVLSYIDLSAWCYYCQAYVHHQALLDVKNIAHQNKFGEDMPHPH

Histone deacetylase 7 = target: T3, Histone deacetylase 7 (Homo sapiens, UniProt Q8WUI4); assay: Inhibition of recombinant human N-terminal GST-tagged HDAC7 expressed in baculovirus infected Sf9 insect cells using fluorogenic substrate measured after 60 mins by FRET assay
T3 sequence (Q8WUI4 whole entry): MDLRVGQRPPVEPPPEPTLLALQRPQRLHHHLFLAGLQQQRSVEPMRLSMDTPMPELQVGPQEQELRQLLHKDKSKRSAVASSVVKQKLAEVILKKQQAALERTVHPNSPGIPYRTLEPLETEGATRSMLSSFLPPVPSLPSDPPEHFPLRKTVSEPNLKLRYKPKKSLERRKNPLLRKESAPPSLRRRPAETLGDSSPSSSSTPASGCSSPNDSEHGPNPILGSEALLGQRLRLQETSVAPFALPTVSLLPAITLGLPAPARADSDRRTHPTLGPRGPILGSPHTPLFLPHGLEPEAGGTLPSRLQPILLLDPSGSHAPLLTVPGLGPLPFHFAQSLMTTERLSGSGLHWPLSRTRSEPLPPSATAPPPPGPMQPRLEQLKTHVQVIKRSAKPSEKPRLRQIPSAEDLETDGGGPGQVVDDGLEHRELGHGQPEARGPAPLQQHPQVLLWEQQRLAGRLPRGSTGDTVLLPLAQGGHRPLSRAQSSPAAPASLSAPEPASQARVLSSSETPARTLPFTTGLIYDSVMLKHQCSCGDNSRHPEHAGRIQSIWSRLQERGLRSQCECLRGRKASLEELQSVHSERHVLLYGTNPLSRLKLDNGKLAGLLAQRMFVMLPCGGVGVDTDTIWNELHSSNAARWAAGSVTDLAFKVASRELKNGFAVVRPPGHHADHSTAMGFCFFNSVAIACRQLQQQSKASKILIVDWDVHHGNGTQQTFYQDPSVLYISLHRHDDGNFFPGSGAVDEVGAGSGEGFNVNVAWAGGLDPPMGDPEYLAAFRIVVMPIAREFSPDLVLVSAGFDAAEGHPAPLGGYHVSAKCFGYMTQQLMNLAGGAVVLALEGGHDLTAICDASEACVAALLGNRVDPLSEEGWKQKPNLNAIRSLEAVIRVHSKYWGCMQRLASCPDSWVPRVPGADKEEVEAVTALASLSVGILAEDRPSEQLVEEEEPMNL

Histone deacetylase 2 = Histone deacetylase 2 (Homo sapiens, UniProt Q92769); assay: biochemical; assay type: cell-based, Sf9
Description: Inhibition of recombinant human full length C-terminal His- tagged HDAC2 (1 to 488 residues) expressed in Sf9 insect cells using fluorometric substrate measured after 60 mins by FRET assay

Histone deacetylase 1 = Histone deacetylase 1 (Homo sapiens, UniProt Q13547); assay: Inhibition of recombinant human C-terminal FLAG/His-tagged HDAC1 (1 to 482 residues) expressed in Sf9 insect cells using fluorometric substrate measured after 60 mins by FRET assay
Histone deacetylase 1, sequence (Q13547 whole entry, the tested form may be a part): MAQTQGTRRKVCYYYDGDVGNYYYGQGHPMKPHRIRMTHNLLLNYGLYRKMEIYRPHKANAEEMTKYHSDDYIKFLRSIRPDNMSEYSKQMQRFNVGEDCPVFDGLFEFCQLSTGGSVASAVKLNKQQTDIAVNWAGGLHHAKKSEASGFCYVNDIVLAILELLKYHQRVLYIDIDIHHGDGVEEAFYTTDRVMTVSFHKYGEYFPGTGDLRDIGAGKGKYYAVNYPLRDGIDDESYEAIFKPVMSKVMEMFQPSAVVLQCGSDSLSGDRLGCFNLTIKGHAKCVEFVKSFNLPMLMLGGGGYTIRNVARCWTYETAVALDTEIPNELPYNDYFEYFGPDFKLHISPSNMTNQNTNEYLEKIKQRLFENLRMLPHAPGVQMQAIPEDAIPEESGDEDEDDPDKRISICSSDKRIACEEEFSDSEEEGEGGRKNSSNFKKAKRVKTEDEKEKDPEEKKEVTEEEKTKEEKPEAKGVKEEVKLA

Histone deacetylase 4, sequence (P56524 whole entry, the tested form may be a part): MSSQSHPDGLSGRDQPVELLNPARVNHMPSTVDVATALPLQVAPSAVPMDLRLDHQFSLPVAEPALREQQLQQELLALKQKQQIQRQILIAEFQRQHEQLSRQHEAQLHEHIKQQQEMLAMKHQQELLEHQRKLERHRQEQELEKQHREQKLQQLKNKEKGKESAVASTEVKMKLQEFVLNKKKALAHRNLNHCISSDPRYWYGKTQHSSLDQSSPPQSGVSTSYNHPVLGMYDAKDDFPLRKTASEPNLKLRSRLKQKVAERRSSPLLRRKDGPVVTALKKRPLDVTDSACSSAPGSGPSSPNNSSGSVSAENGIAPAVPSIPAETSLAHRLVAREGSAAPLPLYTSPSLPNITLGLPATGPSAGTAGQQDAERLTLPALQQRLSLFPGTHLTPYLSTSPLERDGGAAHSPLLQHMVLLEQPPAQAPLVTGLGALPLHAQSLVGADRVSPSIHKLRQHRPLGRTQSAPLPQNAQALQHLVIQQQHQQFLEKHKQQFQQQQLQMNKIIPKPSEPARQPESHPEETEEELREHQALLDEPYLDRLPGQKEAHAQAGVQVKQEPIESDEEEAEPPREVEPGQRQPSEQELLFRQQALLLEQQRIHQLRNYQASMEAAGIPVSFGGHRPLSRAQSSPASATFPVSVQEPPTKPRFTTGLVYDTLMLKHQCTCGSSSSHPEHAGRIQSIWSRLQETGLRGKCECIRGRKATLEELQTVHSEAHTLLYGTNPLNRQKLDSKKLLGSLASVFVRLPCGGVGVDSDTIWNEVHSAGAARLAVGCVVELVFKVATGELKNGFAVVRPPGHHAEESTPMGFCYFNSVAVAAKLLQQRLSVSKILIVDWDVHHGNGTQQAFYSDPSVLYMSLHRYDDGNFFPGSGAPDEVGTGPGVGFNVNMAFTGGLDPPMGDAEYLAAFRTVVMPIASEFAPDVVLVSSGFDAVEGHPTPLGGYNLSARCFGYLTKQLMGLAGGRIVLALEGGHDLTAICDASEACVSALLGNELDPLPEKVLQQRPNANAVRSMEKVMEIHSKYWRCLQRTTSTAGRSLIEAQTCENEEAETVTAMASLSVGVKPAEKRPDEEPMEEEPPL
Histone deacetylase 5, sequence (Q9UQL6 whole entry): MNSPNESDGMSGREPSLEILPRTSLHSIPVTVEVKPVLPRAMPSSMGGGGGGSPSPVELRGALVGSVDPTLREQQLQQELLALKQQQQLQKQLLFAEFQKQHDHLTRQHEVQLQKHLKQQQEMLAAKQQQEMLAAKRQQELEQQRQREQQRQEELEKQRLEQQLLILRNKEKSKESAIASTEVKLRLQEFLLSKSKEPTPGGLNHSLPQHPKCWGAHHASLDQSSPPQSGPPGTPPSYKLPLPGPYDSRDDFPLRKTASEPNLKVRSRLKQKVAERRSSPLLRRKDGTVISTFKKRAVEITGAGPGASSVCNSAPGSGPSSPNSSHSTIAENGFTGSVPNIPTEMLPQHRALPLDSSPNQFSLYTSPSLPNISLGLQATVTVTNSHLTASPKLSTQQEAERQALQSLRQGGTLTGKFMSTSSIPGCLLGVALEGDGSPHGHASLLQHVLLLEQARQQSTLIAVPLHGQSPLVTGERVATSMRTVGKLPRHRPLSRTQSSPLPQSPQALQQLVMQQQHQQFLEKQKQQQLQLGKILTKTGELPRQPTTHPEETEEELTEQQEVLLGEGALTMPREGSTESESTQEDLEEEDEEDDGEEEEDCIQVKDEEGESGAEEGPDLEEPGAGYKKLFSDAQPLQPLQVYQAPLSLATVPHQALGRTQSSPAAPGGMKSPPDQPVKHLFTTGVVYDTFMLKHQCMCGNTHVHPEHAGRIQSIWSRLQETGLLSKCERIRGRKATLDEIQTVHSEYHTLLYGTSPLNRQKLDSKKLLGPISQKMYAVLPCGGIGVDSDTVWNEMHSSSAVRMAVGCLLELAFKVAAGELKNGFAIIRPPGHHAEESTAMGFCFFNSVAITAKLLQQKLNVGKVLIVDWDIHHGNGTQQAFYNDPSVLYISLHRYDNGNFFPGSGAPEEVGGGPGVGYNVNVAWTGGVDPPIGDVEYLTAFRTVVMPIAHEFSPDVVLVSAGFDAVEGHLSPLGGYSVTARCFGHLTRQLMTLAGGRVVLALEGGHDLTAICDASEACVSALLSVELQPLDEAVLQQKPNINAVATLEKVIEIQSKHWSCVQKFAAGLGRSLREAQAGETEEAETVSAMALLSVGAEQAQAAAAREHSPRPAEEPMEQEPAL
Histone deacetylase 2, sequence (Q92769 whole entry, the tested form may be a part): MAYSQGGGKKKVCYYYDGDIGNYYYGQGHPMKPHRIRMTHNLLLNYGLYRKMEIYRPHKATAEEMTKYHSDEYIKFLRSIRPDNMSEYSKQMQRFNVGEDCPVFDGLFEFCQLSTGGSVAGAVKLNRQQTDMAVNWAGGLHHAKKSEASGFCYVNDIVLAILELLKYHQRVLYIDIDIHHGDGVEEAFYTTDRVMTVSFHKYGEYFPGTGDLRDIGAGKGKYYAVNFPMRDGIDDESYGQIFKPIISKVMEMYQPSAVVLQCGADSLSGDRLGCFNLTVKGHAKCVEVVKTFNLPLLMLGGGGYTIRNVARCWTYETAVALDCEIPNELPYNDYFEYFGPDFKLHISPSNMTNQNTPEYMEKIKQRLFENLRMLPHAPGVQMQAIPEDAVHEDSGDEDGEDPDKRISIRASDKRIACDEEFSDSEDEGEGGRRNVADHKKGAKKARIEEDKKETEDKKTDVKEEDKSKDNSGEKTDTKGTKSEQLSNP

Work on `C/C=C1\NC(=O)c2csc(n2)CNC(=O)C[C@@H](/C=C/CCSSCCCCCCC)OC(=O)[C@H](CCCCN)NC1=O` yielded an IC50 (Histone deacetylase 11) greater than 10 µM, an IC50 (Histone deacetylase 4) greater than 10 µM and an IC50 (Histone deacetylase 5) greater than 10 µM. It also gave an IC50 [1] greater than 10 µM, an IC50 (Histone deacetylase 7) greater than 10 µM and an IC50 (Histone deacetylase 2) of 0.0075 µM. The IC50 (Histone deacetylase 1) was 0.0058 µM.
